Laboratory results published in patent US6608082B1, “Treatment of erectile dysfunction using isoquinoline compound melanocortin receptor ligands” (Lion Bioscience AG, priority 1998, dated 2003).
Where two headings read alike, the source gives them in different places.

Tests used:
MCR-1 = biological target: T1, MCR-1 (Homo sapiens, UniProt Q01726); assay: Melanocortin receptor binding assay, competition with 125I-HP 467, HEK 293 cells expressing hMCR-1; settings: for IC50: read-out: MC-1 IC50; for % Disp. MC-1 10 μM: displacement of 125I-HP 467 at 10 μM isoquinoline compound; for % Disp. of 125I-HP 467 (first of duplicate) / % Disp. of 125I-HP 467 (second of duplicate): 10 μM isoquinoline compound; for % Disp. of 125I-HP 467 (first of duplicate): HEK 293 cells expressing MCR-1, duplicate 1; for % Disp. of 125I-HP 467 (second of duplicate): HEK 293 cells expressing MCR-1, duplicate 2; for effectiveness as MC receptor ligand: binding to MC receptors, Table 1; for specificity for at least one MC receptor over another MC receptor: MCR-1 versus MCR-4 binding
T1 construct: expressed in transfected cells; host or cells: HEK 293
How it was run: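 Intact-cell competition binding, 2.5 hr at 37 °C, in PBS/10% calf serum/1 mM CaCl2; hMCR-4 cells at 4×10^3 per tube, hMCR-1 cells at 2×10^4 per tube. Filtration on BSA/CaCl2-soaked GF/B, cold 50 mM Tris pH 7.4 washes, scintillation count.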

MCR-3 = biological target: T2, MCR-3 (Homo sapiens, UniProt P41968); assay: Melanocortin receptor binding assay, competition with 125I-HP 467, HEK 293 cells expressing hMCR-3; settings: binding to MCR-3, HEK 293 cells; read-out: MC-3 IC50
T2 construct: expressed in transfected cells; host or cells: HEK 293
Text: All cell culture media and reagents were obtained from GibcoBRL (Gaithersburg Md.), except for COSMIC CALF SERUM (HyClone; Logan Utah). HEK-293 cell lines were transfected with the human MC receptors hMCR-1, hMCR-3, and hMCR-4 (Gantz et al., Biochem. Biophys. Res. Comm. 200:1214-1220 (1994); Gantz et al., J. Biol. Chem. 268:8246-8250 (1993); Gantz et al. J. Biol. Chem. 268:15174-15179 (1993); Haskell-Leuvano et al., Biochem. Biophys. Res. Comm. 204:1137-1142 (1994); each of which is incorporated herein by reference). Vectors for construction of an hMCR-5 expressing cell line were obtained, and a line of HEK 293 cells expressing hMCR-5 was constructed (Gantz, supra, 1994). hMCR-5 has been described previously (Franberg et al., Biochem. Biophys. Res. Commun. 236:489-492 (1997); Chowdhary et al., Cytogenet. Cell Genet. 68:1-2 (1995); Chowdhary et al., Cytogenet. Cell Genet. 68:79-81 (1995), each of which is incorporated herein by reference). HEK 293 cells were maintained in DMEM, 25 mM HEPES, 2 mM glutamine, non-essential amino acids, vitamins, sodium pyruvate, 10% COSMIC CALF SERUM, 100 units/ml penicillin, 100 μg/ml streptomycin and 0.2 mg/ml G418 to maintain selection.
Before assaying, cells were washed once with phosphate buffered saline (“PBS”; without Ca^2+ and Mg^2+), and stripped from the flasks using 0.25% trypsin and 0.5 mM EDTA. Cells were suspended in PBS, 10% COSMIC CALF SERUM and 1 mM CaCl2. Cell suspensions were prepared at a density of 2×10^4 cells/ml for HEK 293 cells expressing hMCR-3, hMCR-4 or hMCR-5, and 1×10^5 cells/ml for HEK 293 cells expressing hMCR-1. Suspensions were placed in a water bath and allowed to warm to 37° C. for 1 hr.
Binding assays were performed in a total volume of 250 μl for HEK 293 cells. Control and test compounds were dissolved in distilled water. ^125I-HP 467 (50,000 dpm) (2000 Ci/mmol) (custom labeled by Amersham; Arlington Heights Ill.) was prepared in 50 mM Tris, pH 7.4, 2 mg/ml BSA, 10 mM CaCl2, 5 mM MgCl2, 2 mM EDTA and added to each tube. To each tube was added 4×10^3 HEK 293 cells expressing hMCR-3, hMCR-4 or hMCR-5, or 2×10^4 cells expressing hMCR-1. Assays were incubated for 2.5 hr at 37° C.
GF/B filter plates were prepared by soaking for at least one hour in 5 mg/ml BSA and 10 mM CaCl2. Assays were filtered using a Brandel 96-well cell harvester (Brandel Inc.; Gaithersburg, Md.). The filters were washed four times with cold 50 mM Tris, pH 7.4, the filter plates were dehydrated for 2 hr and 35 μl of MICROSCINT was added to each well. Filter plates were counted using a Packard Topcount (Packard Instrument Co.) and data analyzed using GraphPad PRISM v2.0 (GraphPad Software Inc.; San Diego Calif.) and Microsoft EXCEL v5.0a (Microsoft Corp.; Redmond Wash.).
To assay isoquinoline compounds, binding assays were performed in duplicate in a 96 well format. HP 467 was prepared in 50 mM Tris, pH 7.4, and ^125I-HP 467 was diluted to give 100,000 dpm per 50 μl. An isoquinoline compound, synthesized as described in Example I, was added to the well in 25 μl aliquots. A 25 μl aliquot of ^125I-HP 467 was added to each well. A 0.2 ml aliquot of suspended cells was added to each well to give the cell numbers indicate above, and the cells were incubated at 37° C. for 2.5 hr. Cells were harvested on GF/B filter plates as described above and counted.
Some of the isoquinoline compounds were further tested for binding to MCR-3 and MCR-5.

IL-10 = assay: Increasing levels of IL-10 in mice (plasma ELISA); format: in vivo; settings: for % IL-10 Induction, IP 30: 30 μg per mouse; for % IL-10 Induction, IP 30 / % IL-10 Induction, IP 100 / % IL-10 Induction, IP 300 / % IL-10 Induction, Oral 600 / % IL-10 Induction, Oral 300: mouse plasma, 90 or 105 minutes; for % IL-10 Induction, IP 100: 100 μg per mouse; for % IL-10 Induction, IP 300 / % IL-10 Induction, Oral 300: 300 μg per mouse; for increase of IL-10: plasma levels in mice; for % IL-10 Induction, Oral 600: 600 μg per mouse
Method: Isoquinoline compounds were administered intraperitoneally to mice in doses of 30, 100 or 300 μg/mouse or orally in doses of 300 or 600 μg/mouse. Levels of IL-10 were measured 90 or 105 minutes after administration as indicated. Samples were collected and diluted, when appropriate, as described in Example VI. A 100 μl sample of plasma was assayed by ELISA for IL-10. Briefly, ELISA plates were coated with rat anti-mouse IL-10 monoclonal antibody (Pharmingen; San Diego Calif.). Samples or known concentrations of IL-10 were added to the coated plates and incubated for 2 hr at 37° C. Plates were washed and incubated with biotinylated rat anti-mouse IL-10 (R&D Systems; Minneapolis Minn.) for 1 hr at 37° C. Plates were washed and incubated with streptavidin-HRP 30 min at 37° C., and HRP activity was detected with hydrogen peroxide and TMB using standard immunoassay procedures.

[1] = competition with 125I-HP 467, HEK 293 cells expressing MCR-1

T2 sequence (P41968 whole entry): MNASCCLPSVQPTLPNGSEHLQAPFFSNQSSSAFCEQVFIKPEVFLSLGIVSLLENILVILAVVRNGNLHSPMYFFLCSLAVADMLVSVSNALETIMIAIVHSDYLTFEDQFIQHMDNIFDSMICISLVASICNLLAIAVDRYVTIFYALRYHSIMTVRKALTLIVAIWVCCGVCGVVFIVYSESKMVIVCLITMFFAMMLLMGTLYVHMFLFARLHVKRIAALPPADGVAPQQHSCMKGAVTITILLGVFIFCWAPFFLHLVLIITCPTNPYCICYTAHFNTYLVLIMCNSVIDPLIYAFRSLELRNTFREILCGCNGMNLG
T1 sequence (Q01726 whole entry): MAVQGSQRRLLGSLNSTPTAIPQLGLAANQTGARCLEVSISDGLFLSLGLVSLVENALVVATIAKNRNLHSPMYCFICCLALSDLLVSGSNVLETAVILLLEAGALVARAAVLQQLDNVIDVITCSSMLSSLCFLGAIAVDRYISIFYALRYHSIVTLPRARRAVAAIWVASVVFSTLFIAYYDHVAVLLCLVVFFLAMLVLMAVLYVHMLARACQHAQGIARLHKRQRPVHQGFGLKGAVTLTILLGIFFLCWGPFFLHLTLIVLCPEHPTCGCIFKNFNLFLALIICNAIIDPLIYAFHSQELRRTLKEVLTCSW

SMILES | IC50 (MCR-1; TRG 2405 section, inhibition of binding of 125I-HP 467, HEK 293 cells expressing MCR-1) | % Disp. MC-1 10 μM (MCR-1; first of duplicate) | % Disp. MC-1 10 μM (MCR-1; second of duplicate) | IC50 (MCR-3) | % Disp. of 125I-HP 467 (first of duplicate) (MCR-1) | % Disp. of 125I-HP 467 (second of duplicate) (MCR-1) | IC50 (MCR-1; [1]) | % IL-10 Induction, IP 30 (IL-10) | % IL-10 Induction, IP 100 (IL-10) | % IL-10 Induction, IP 300 (IL-10) | effectiveness as MC receptor ligand (MCR-1) | increase of IL-10 (IL-10) | % IL-10 Induction, Oral 600 (IL-10) | specificity for at least one MC receptor over another MC receptor (MCR-1) | % IL-10 Induction, Oral 300 (IL-10)
CNC(CN)CN1Cc2ccccc2C(CNC2CCCCC2)C1c1ccc(O)cc1 (stereo not shown) [TRG 2405-156] | 17 µM | 25.9% | 21.3% | 23.7 µM | – | – | – | 17 ± 23% | −5 ± 11% | 43 ± 34% | – | – | – | – | –
CNC(CN)CCCCN1Cc2ccccc2C(CNC2CCCCC2)C1c1ccc(N(C)C)cc1 (stereo not shown) [TRG 2405-235] | – | – | – | 22.3 µM | 64.2% | 26.3% | – | −11 ± 13% | 45 ± 18% | 113 ± 15 % | – | – | – | – | –
CNC(CN)CCCCN1Cc2ccccc2C(CNC2CCCCC2)C1c1ccc(C(F)(F)F)cc1 (stereo not shown) [TRG 2405-238] | – | – | – | > 10 µM | 76.8% | 72.8% | – | −17 ± 7% | 151 ± 26 % | 118 ± 25 % | – | – | 65 ± 15 % | – | –
CCNc1ccc(C2C(CNC3CCCCC3)c3ccccc3CN2CCCCC(CN)NC)cc1 (stereo not shown) [TRG 2405-239] | – | – | – | 39.8 µM | 86.6% | 85.2% | – | 44 ± 35% | −29 ± 6% | 197 ± 34 % | particularly effective MC receptor ligands | – | 46 ± 14% | – | –
CNC(CN)CCCCN1Cc2ccccc2C(CNC2CCCCC2)C1c1ccc(-c2ccccc2)cc1 (stereo not shown) [TRG 2405-241] | – | – | – | 7.45 µM | 89.5% | 88.8% | – | 117 ± 21% | 310 ± 35 % | 406 ± 46 % | particularly effective MC receptor ligands | particularly effective at increasing IL-10 | 77 ± 37 % | about 10 fold | 9 ± 23%
CCCCNc1ccc(C2C(CNCc3ccccc3O)c3ccccc3CN2CCCCC(CN)NC)cc1 (stereo not shown) [TRG 2409-2] | – | – | – | – | – | – | 0.22 µM | −30 ± 11% | – | 157 ± 57 % | particularly effective MC receptor ligands | – | 82 ± 19 % | – | 39 ± 15%

Further lines, with some results ahead:

IC50 (MCR-1; TRG 2405 section, inhibition of binding of 125I-HP 467, HEK 293 cells expressing MCR-1) | % Disp. MC-1 10 μM (MCR-1; first of duplicate) | % Disp. MC-1 10 μM (MCR-1; second of duplicate) | IC50 (MCR-3) | % Disp. of 125I-HP 467 (first of duplicate) (MCR-1) | % Disp. of 125I-HP 467 (second of duplicate) (MCR-1) | IC50 (MCR-1; [1]) | SMILES | % IL-10 Induction, IP 30 (IL-10) | % IL-10 Induction, IP 100 (IL-10) | % IL-10 Induction, IP 300 (IL-10) | effectiveness as MC receptor ligand (MCR-1) | increase of IL-10 (IL-10) | % IL-10 Induction, Oral 600 (IL-10) | specificity for at least one MC receptor over another MC receptor (MCR-1) | % IL-10 Induction, Oral 300 (IL-10)
– | – | – | 2.24 µM | 79.4% | 81% | – | CNC(CN)CCCCN1Cc2ccccc2C(CNC2CCCCC2)C1c1ccc(Cl)cc1Cl (stereo not shown) [TRG 2405-190] | 25 ± 30% | 13 ± 14% | 109 ± 31 % | particularly effective MC receptor ligands | particularly effective at increasing IL-10 | – | – | –
– | – | – | 0.55 µM | 86% | 83.4% | – | CNC(CN)CCCCN1Cc2ccccc2C(CNC2CCCCC2)C1c1ccc(Br)cc1 (stereo not shown) [TRG 2405-242] | – | −9 ± 7% | – | – | – | – | – | –
– | – | – | > 10 µM | 26.5% | 20.7% | – | CNC(CN)CCCCN1Cc2ccccc2C(CNC2CCCCC2)C1c1ccc(O)cc1 (stereo not shown) [TRG 2405-246] | – | – | – | – | – | 30 ± 5 % | – | –
– | – | – | 6.49 µM | 95.1% | 95.5% | – | CNC(CN)CCCCN1Cc2ccccc2C(CNC2CCCCC2)C1c1ccc(Oc2ccccc2)cc1 (stereo not shown) [TRG 2405-252] | 2 ± 13% | – | 307 ± 43 % | particularly effective MC receptor ligands | particularly effective at increasing IL-10 | 69 ± 19 % | about 10 fold | –
– | – | – | – | – | – | 0.1 µM | CCCCNc1ccc(C2C(CNC3CCCCC3)c3ccccc3CN2CCCCC(CN)NC)cc1 (stereo not shown) [TRG 2409-14] | −27 ± 8% | – | 150 ± 50 % | particularly effective MC receptor ligands | – | 193 ± 50 % | – | 79 ± 29%
